PubChem BioAssay AID588384 (NMMLSC, 2011)
Active and inactive are the calls of the source.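 How the source made its calls: active means half-maximal concentration at most 10 µM and% response shifting at least 30 points across doses; inactive means the rest.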

Biological target: Cell division control protein 42 homolog (Homo sapiens) (UniProt P60953)
Assay: constitutively active Cdc42 guanine nucleotide binding blockers – biochemical, activated mutant, bead multiplex, flow cytometry, round 1, selectivity assay for Rab7 inhibitor project, SAR follow-up (AID 588384)
Conditions: GST-Cdc42 act beads, fluorescent GTP binding; for % response (lower = inhibition): at 100 µM (top of the series)

Chain of Cell division control protein 42 homolog (Homo sapiens) (P60953 whole entry, looked up): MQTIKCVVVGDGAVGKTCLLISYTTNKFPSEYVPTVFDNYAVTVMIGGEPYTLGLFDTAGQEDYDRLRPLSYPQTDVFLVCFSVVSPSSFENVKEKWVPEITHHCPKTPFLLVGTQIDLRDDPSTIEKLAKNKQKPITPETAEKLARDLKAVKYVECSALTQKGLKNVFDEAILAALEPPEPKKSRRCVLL

SMILES	% response (lower = inhibition)	EC50
CCOC(=O)c1c(NC(=O)NC(C)(C)C)sc2c1CCN(C)C2	inactive	–
CCOC(=O)c1c(N)sc2ccccc12	inactive	–
CC(C)(C)OC(=O)c1c(NC(=S)NC(=O)c2ccccc2)sc2c1CCOC2	inactive	–
CCOC(=O)c1c(NC(=O)Nc2ccc(F)cc2)sc2c1CCN(C)C2	inactive	–
CC1(C)Cc2c(sc(NC(=S)NC(=O)c3ccc(Br)cc3)c2C(=O)O)CO1	–	0.289 µM
COc1ccc(C(=O)NC(=S)Nc2sc3c(c2C(=O)O)CC(C)(C)OC3)cc1	–	0.204 µM
CN1CCc2c(sc3nc(Nc4ccc(F)cc4)oc(=O)c23)C1	inactive	–
CCOC(=O)c1c(NC(=S)NC(=O)c2ccccc2)sc2ccccc12	inactive	–
O=C(NC(=S)Nc1sc2c(c1C(=O)O)CCOC2)c1ccccc1	–	0.044 µM
CC1Cc2c(sc(NC(=S)NC(=O)c3ccccc3)c2C(=O)O)CO1 (stereo unspecified)	–	0.09 µM
COc1cccc(C(=O)NC(=S)Nc2sc3c(c2C(=O)O)CC(C)(C)OC3)c1	–	0.054 µM
COC(=O)c1c(N)sc2c1CC(C)(C)OC2	inactive	–
CC1(C)Cc2c(sc(NC(=O)NC(=O)c3ccccc3)c2C(=O)O)CO1	–	0.468 µM
Cc1ccc(Nc2nc3sc4c(c3c(=O)o2)CCN(C)C4)cc1	inactive	–
CC1(C)Cc2c(sc(NC(=S)NC(=O)c3ccccc3Br)c2C(=O)O)CO1	–	0.054 µM
CN1CCc2c(sc(NC(=O)Nc3ccc(F)cc3)c2C(=O)O)C1	inactive	–
CC1(C)Cc2c(sc(NC(=S)NC(=O)c3ccccc3F)c2C(=O)O)CO1	–	0.051 µM
CC1(C)Cc2c(sc(NC(=S)NC(=O)c3cccc(F)c3)c2C(=O)O)CO1	–	0.326 µM
CC1(C)CCc2sc(NC(=S)NC(=O)c3ccccc3)c(C(=O)O)c2C1	–	0.108 µM
COC(=O)c1c(NC(=S)NC(=O)c2ccccc2)sc2c1CC(C)(C)OC2	inactive	–
CCOC(=O)c1c(NC(=O)Nc2ccc(C)cc2)sc2c1CCN(C)C2	inactive	–
CC1(C)Cc2c(sc(NC(=S)NC(=O)c3cccc(Br)c3)c2C(=O)O)CO1	–	5.69 µM
Cc1ccc(NC(=O)Nc2sc3c(c2C(=O)O)CCN(C)C3)cc1	inactive	–
CC1(C)Cc2c(sc(NC(=S)Nc3ccccc3)c2C(=O)O)CO1	inactive	–
CC1(C)Cc2c(sc(NC(=O)Cc3ccccc3)c2C(=O)O)CO1	inactive	–
CCOC(=O)c1c(NC(=S)Nc2ccccc2)sc2c1CC(C)(C)OC2	inactive	–
